The text below walks through data of PubChem BioAssay (NCI).

Assay in all cases: NCI anticancer screen, dose series, 48 h
For experiment [1], the system named is HT29 colon.
The subject of experiment [2] is NCI/ADR-RES ovarian.
Experiment [3] has as its system SW-620 colon.
Experiment [4] concerns UACC-62 melanoma.
Experiment [5] has as its system SK-MEL-2 melanoma.
In experiment [6] the test system is UACC-257 melanoma.
For experiment [7], the system named is UO-31 renal.
In experiment [8] the test system is SK-MEL-28 melanoma.
Experiment [9] concerns RPMI-8226 leukemia.
Experiment [10] concerns MDA-MB-231 breast.
Experiment [11] relates to OVCAR-8 ovarian.
Experiment [12] concerns SK-OV-3 ovarian.
The test system of experiment [13] is LOX IMVI melanoma.
For experiment [14], the system named is MALME-3M melanoma.
For experiment [15], the system named is IGROV1 ovarian.
Experiment [16] relates to SF-295 CNS.
Experiment [17] concerns NCI-H460 lung.
The subject of experiment [18] is KM12 colon.
The subject of experiment [19] is COLO 205 colon.
Experiment [20] relates to DU-145 prostate.

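Test compounds were applied to cells in 96-well plates for 48 hours at 5 doses. The concentration for full growth arrest is given as TGI.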

Take `Cc1ccc(C)c(NC(=O)/C(=N\N)C(c2cnc3ccc([N+](=O)[O-])cc3n2)[N+](=O)[O-])c1` (stereo unspecified): the TGI in experiment [1], in experiment [2], in experiment [3], in experiment [4], in [5] and in [6] was > 100 µM in each case. For the same compound, the TGI in experiment [7], in [8], in experiment [9], in experiment [10], in experiment [11] and in [12] was > 100 µM each time. Also, the TGI in experiment [13], in experiment [14], in [15], in experiment [16], in experiment [17] and in experiment [18] was > 100 µM in each case.

For `NC(CCC(=O)NC(CSC(=O)N(O)c1ccc(Cl)cc1)C(=O)NCC(=O)O)C(=O)O` (stereo unspecified), the TGI in [1], in experiment [2], in experiment [3], in experiment [4], in experiment [5] and in experiment [6] was > 0.5 µM throughout. For the same compound, the TGI in [7], in [19], in experiment [8], in experiment [9], in [20] and in [10] was > 0.5 µM each time. Also, the TGI in experiment [11], in [12], in [15], in experiment [16], in [17] and in experiment [18] was > 0.5 µM each time.

As to `CC1C2CC(CC2O)C1(C)C` (stereo unspecified), the TGI in experiment [1], in experiment [3], in experiment [4], in experiment [6], in experiment [7] and in experiment [19] was > 100 µM each time. Further, the TGI in [8], in [20], in [10], in experiment [11], in experiment [12] and in [14] was > 100 µM in each case. The TGI in experiment [15], in [16], in experiment [17] and in experiment [18] was > 100 µM in each case.

As for `c1csc(-c2ccc(-c3ccsc3)s2)c1`, the TGI in experiment [1], in [2], in experiment [3], in [4], in experiment [5] and in experiment [6] was > 100 µM in each case. In addition, the TGI in [7], in experiment [19], in experiment [8], in [9], in [10] and in experiment [11] was > 100 µM each time. Moreover, the TGI in experiment [12], in experiment [13], in [14], in experiment [15], in [16] and in [17] was > 100 µM throughout. Moreover, in experiment [18], the TGI is > 100 µM.

On to `c1ccc(N=C2C(=Nc3ccccc3)N(C3CCCCC3)C(=NC3CCCCC3)N2c2ccccc2)cc1`, for which the TGI in experiment [1], in [3], in [5], in experiment [6], in experiment [7] and in [19] was > 100 µM throughout. Besides, the TGI in [8], in experiment [9], in experiment [10], in experiment [11], in experiment [14] and in [15] was > 100 µM throughout. Also, the TGI in [17] and in experiment [18] was > 100 µM throughout.

As to `CCOC(=O)CCC(NC(=O)c1ccc(OCc2ccc3nc(OC)c(OC)nc3c2)cc1)C(=O)OCC` (stereo unspecified), the TGI in experiment [1] is > 100 µM; in experiment [3] it was > 100 µM; in [4], > 100 µM; in experiment [5] it was 74.6 µM; in experiment [6], > 100 µM; in experiment [7], > 100 µM. Further, the TGI in experiment [19] is 32.8 µM; in [8] it was > 100 µM; in [9], > 100 µM; in experiment [20], > 100 µM; in [11], > 100 µM; in [12], > 100 µM. The TGI in experiment [13] was > 100 µM; in [14], 69.2 µM; in [15], > 100 µM; in [16], > 100 µM; in [17] it was > 100 µM; in [18], > 100 µM.

On to `O=C(OCC(Cl)(Cl)Cl)N1CC[C@@H](C2CCCCC2)C1`, for which the TGI is 32.9 µM in [2]; 85.5 µM in experiment [4]; 33.1 µM in [5]; > 100 µM in [6]; 40.2 µM in experiment [7]; 56.3 µM in experiment [19]. Further, the TGI was > 100 µM in experiment [20]; > 100 µM in [10]; > 100 µM in experiment [12]; > 100 µM in [13]; > 100 µM in experiment [15]; 38.9 µM in experiment [16]. Moreover, the results for the TGI in experiment [17] and in experiment [18] were 43.8 µM and 31.8 µM, respectively.

As to `CC(C)(C)OC(=O)N(CCCCNC(=O)c1ccccc1)CCCNC(=O)c1ccccc1`, the TGI in experiment [1], in experiment [2], in [3], in experiment [4], in experiment [5] and in experiment [6] was > 100 µM throughout. Also, the TGI in experiment [7], in experiment [19], in experiment [8], in experiment [9], in [20] and in experiment [10] was > 100 µM in each case. Besides, the TGI in [11], in [12], in experiment [15], in [16], in experiment [17] and in experiment [18] was > 100 µM throughout.

In the case of `c1ccc2c(c1)ccc1nc3ccccn3c12`, the TGI in [1], in [2], in [3], in [4], in [6] and in experiment [7] was > 100 µM throughout. Also, the TGI in experiment [19], in experiment [8], in experiment [9], in [20], in [11] and in [12] was > 100 µM in each case. The TGI in [14], in experiment [15], in experiment [16], in [17] and in [18] was > 100 µM throughout.

Consider `O=[N+]([O-])c1ccc(OP(=O)(O)OCC2OC(CP(=O)(O)O)C(O)C2O)cc1` (stereo unspecified), for which the TGI in [1], in experiment [2], in experiment [3], in [4], in experiment [5] and in experiment [6] was > 100 µM throughout. Also, the TGI in experiment [7], in [19], in [8], in experiment [20], in experiment [10] and in [11] was > 100 µM throughout. For the same compound, the TGI in [13], in [15], in experiment [16], in experiment [17] and in [18] was > 100 µM each time.

With `N#Cc1nc(-c2ccccc2O)oc1N`, the TGI in experiment [1], in [3], in experiment [4], in experiment [5], in experiment [6] and in experiment [8] was > 100 µM throughout. The TGI in experiment [9], in experiment [20], in experiment [10], in experiment [11], in experiment [12] and in [13] was > 100 µM each time. In addition, the TGI in experiment [15] and in experiment [18] was > 100 µM throughout.

`O=C(O)c1cccc(S(=O)(=O)NN2C(=O)CSC2c2ccccc2Cl)c1` (stereo unspecified): the TGI in experiment [1], in experiment [3], in [4], in experiment [5], in experiment [6] and in experiment [7] was > 100 µM each time. In addition, the TGI in [19], in experiment [8], in experiment [9], in [20], in experiment [10] and in [11] was > 100 µM each time. Moreover, the TGI in [12], in experiment [13], in [14], in experiment [15], in experiment [16] and in experiment [17] was > 100 µM each time. Also, the TGI in experiment [18] is > 100 µM.

As to `CCOC(=O)C1=COC(C)(C)CC1=O`, the TGI in experiment [1], in [2], in experiment [3], in [4], in [5] and in [6] was > 100 µM each time. Moreover, the TGI in experiment [7], in experiment [19], in [8], in experiment [9], in experiment [20] and in experiment [10] was > 100 µM in each case. The TGI in experiment [11], in experiment [12], in experiment [16], in [17] and in experiment [18] was > 100 µM throughout.

As for `OC1=CN=C(C2CC2)Oc2ccccc21`, the TGI in experiment [1], in experiment [3], in experiment [4], in experiment [5], in experiment [6] and in experiment [7] was > 100 µM throughout. Moreover, the TGI in experiment [19], in [8], in experiment [9], in experiment [11], in experiment [12] and in [13] was > 100 µM each time. The TGI in experiment [14], in experiment [15], in experiment [16], in experiment [17] and in [18] was > 100 µM throughout.

With `c1csc(-c2sc(-c3ccsc3)cc2Cc2ccsc2)c1`, the TGI in [1], in experiment [3], in experiment [4], in experiment [6], in [19] and in [8] was > 10 µM throughout. Besides, the TGI in experiment [9], in experiment [20], in [10], in [11], in [12] and in [13] was > 10 µM throughout. Further, the TGI in experiment [14], in experiment [15], in [16] and in [18] was > 10 µM throughout.

In the case of `CC(=O)OCC1=C2C(OC(=O)C(C)C)CC3(COC(C)=O)OC3/C=C\C3(C)OC3C2OC1=O` (stereo unspecified), the TGI in experiment [1], in experiment [3], in experiment [4], in experiment [5], in experiment [6] and in experiment [7] was > 100 µM throughout. The TGI in [19], in [8], in experiment [9], in experiment [20], in [10] and in [11] was > 100 µM throughout. Moreover, the TGI in [12], in experiment [13], in [14], in experiment [15], in [16] and in experiment [17] was > 100 µM each time. The TGI in [18] was > 100 µM.
